# PubChem BioAssay AID1963839 (Molecular Pharmacology Branch, DTP, NCI, 2024)
# Test system: 817829-284-R-J1-PDC complex spheroid viability
# Experiment: Anticancer human tumor 817829-284-R-J1-PDC patient-derived colon adenocarcinoma cell line growth inhibition [POLQ]
# Conditions: for IC50: curve of first compound; for viability, T/C: stronger effect = lower value
# Method in brief: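 Growth inhibition in 3D: complex spheroids (tumor PDC, HUVEC, MSC) treated with POLQ inhibitor combinations; where Cmax unknown, highest tested concentration 10 microM, except SN-38 at 1 microM.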
# [1] = second compound 0.0316 µM, first compound 0.0316 µM
# [2] = second compound 0.0316 µM, first compound 0.1 µM
# [3] = second compound 0.0316 µM, first compound 0.316 µM
# [4] = second compound 0.0316 µM, first compound 1 µM
# [5] = second compound 0.0316 µM, first compound 3.16 µM
# [6] = second compound 0.0316 µM, first compound 10 µM
# [7] = second compound 0.1 µM, first compound 0.0316 µM
# [8] = second compound 0.1 µM, first compound 0.1 µM
# [9] = second compound 0.1 µM, first compound 0.316 µM
# [10] = second compound 0.1 µM, first compound 1 µM
# [11] = second compound 0.1 µM, first compound 3.16 µM
# [12] = second compound 0.1 µM, first compound 10 µM
# [13] = second compound 0.316 µM, first compound 0.0316 µM
# [14] = second compound 0.316 µM, first compound 0.1 µM
# [15] = second compound 0.316 µM, first compound 0.316 µM
# [16] = second compound 0.316 µM, first compound 1 µM
# [17] = second compound 0.316 µM, first compound 3.16 µM
# [18] = second compound 0.316 µM, first compound 10 µM
# [19] = second compound 1 µM, first compound 0.0316 µM
# [20] = second compound 1 µM, first compound 0.1 µM
# [21] = second compound 1 µM, first compound 0.316 µM
# [22] = second compound 1 µM, first compound 1 µM
# [23] = second compound 1 µM, first compound 3.16 µM
# [24] = second compound 1 µM, first compound 10 µM
# [25] = second compound 3.16 µM, first compound 0.0316 µM
# [26] = second compound 3.16 µM, first compound 0.1 µM
# [27] = second compound 3.16 µM, first compound 0.316 µM
# [28] = second compound 3.16 µM, first compound 1 µM
# [29] = second compound 3.16 µM, first compound 3.16 µM
# [30] = second compound 3.16 µM, first compound 10 µM
# [31] = second compound 10 µM, first compound 0.0316 µM
# [32] = second compound 10 µM, first compound 0.1 µM
# [33] = second compound 10 µM, first compound 0.316 µM
# [34] = second compound 10 µM, first compound 1 µM
# [35] = second compound 10 µM, first compound 3.16 µM
# [36] = second compound 10 µM, first compound 10 µM
# 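Further: spheroids exposed to compounds for 7 days.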
# 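Wherever viability, T/C is given: 100% = DMSO vehicle-treated spheroids.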
structure (smiles),measurement,setting,value
Nc1ccn(C2OC(CO)C(O)C2(F)F)c(=O)n1 (centres undefined) + Nc1ccc(C#CCN(C(=O)Cc2ncc(C(F)(F)F)cc2C(F)(F)F)c2ccc(F)cc2)nn1,IC50,second compound 0.0316 µM,< 0.0316 µM
same,IC50,second compound 0.1 µM,< 0.0316 µM
same,IC50,second compound 0.316 µM,< 0.0316 µM
same,IC50,second compound 1 µM,< 0.0316 µM
same,IC50,second compound 3.16 µM,< 0.0316 µM
same,IC50,second compound 10 µM,< 0.0316 µM
same,"viability, T/C",[1],3.03%
same,"viability, T/C",[2],4.05%
same,"viability, T/C",[3],4.41%
same,"viability, T/C",[4],4.06%
same,"viability, T/C",[5],2.78%
same,"viability, T/C",[6],2.3%
same,"viability, T/C",[7],3.67%
same,"viability, T/C",[8],4.46%
same,"viability, T/C",[9],3.95%
same,"viability, T/C",[10],3.72%
same,"viability, T/C",[11],3.07%
same,"viability, T/C",[12],1.99%
same,"viability, T/C",[13],3.79%
same,"viability, T/C",[14],3.81%
same,"viability, T/C",[15],4.1%
same,"viability, T/C",[16],4.23%
same,"viability, T/C",[17],2.51%
same,"viability, T/C",[18],2.13%
same,"viability, T/C",[19],3.62%
same,"viability, T/C",[20],4.03%
same,"viability, T/C",[21],4.21%
same,"viability, T/C",[22],3.9%
same,"viability, T/C",[23],2.69%
same,"viability, T/C",[24],1.87%
same,"viability, T/C",[25],4.08%
same,"viability, T/C",[26],3.7%
same,"viability, T/C",[27],3.44%
same,"viability, T/C",[28],3.79%
same,"viability, T/C",[29],2.78%
same,"viability, T/C",[30],1.9%
same,"viability, T/C",[31],5.53%
same,"viability, T/C",[32],3.31%
same,"viability, T/C",[33],3.9%
same,"viability, T/C",[34],3.4%
same,"viability, T/C",[35],3.17%
same,"viability, T/C",[36],2.42%
O=C(c1cc(Cc2n[nH]c(=O)c3ccccc23)ccc1F)N1CCN(C(=O)C2CC2)CC1 + Nc1ccc(C#CCN(C(=O)Cc2ncc(C(F)(F)F)cc2C(F)(F)F)c2ccc(F)cc2)nn1,IC50,second compound 0.0316 µM,5.08 µM
same,IC50,second compound 0.1 µM,2.54 µM
same,IC50,second compound 0.316 µM,4.01 µM
same,IC50,second compound 1 µM,4.53 µM
same,IC50,second compound 3.16 µM,4.24 µM
same,IC50,second compound 10 µM,4.74 µM
same,"viability, T/C",[1],118%
same,"viability, T/C",[2],96%
same,"viability, T/C",[3],93.7%
same,"viability, T/C",[4],91.6%
same,"viability, T/C",[5],58.1%
same,"viability, T/C",[6],32.9%
same,"viability, T/C",[7],108%
same,"viability, T/C",[8],103%
same,"viability, T/C",[9],83.2%
same,"viability, T/C",[10],66.8%
same,"viability, T/C",[11],47%
same,"viability, T/C",[12],27.4%
same,"viability, T/C",[13],90.3%
same,"viability, T/C",[14],94%
same,"viability, T/C",[15],98.1%
same,"viability, T/C",[16],93.5%
same,"viability, T/C",[17],55%
same,"viability, T/C",[18],30.9%
same,"viability, T/C",[19],106%
same,"viability, T/C",[20],94.5%
same,"viability, T/C",[21],89.6%
same,"viability, T/C",[22],85.2%
same,"viability, T/C",[23],58.2%
same,"viability, T/C",[24],27.8%
same,"viability, T/C",[25],113%
same,"viability, T/C",[26],104%
same,"viability, T/C",[27],112%
same,"viability, T/C",[28],92.5%
same,"viability, T/C",[29],58.6%
same,"viability, T/C",[30],26%
same,"viability, T/C",[31],104%
same,"viability, T/C",[32],94.8%
same,"viability, T/C",[33],86.7%
same,"viability, T/C",[34],94.8%
same,"viability, T/C",[35],63.5%
same,"viability, T/C",[36],25.1%
